Values of other authors as cited in US20200206223A1, “LIQUID DOSAGE FORMS OF IMATINIB” (FTF PHARMA PRIVATE LIMITED, priority 2017, published 2020).

Cc1ccc(NC(=O)c2ccc(CN3CCNCC3)cc2)cc1Nc1nccc(-c2cccnc2)n1 [N-desmethyl derivative]
Share of the AUC for Imatinib mesylate (main circulating active metabolite): about 15% | Elimination half-life (orally administered imatinib mesylate): ~40 h
